Data on one molecule can be found in US11554097B2, “Recombinant production of hybrid lipid-biopolymer materials that self-assemble and encapsulate agents” (Duke University, priority 2017, dated 2023).

The conditions of series [1]: cited from earlier work.
The nature of series [2]: Encapsulated drug stability, dialysis against PBS. Format: physicochemical. As for the experimental part: Encapsulated drug stability: To measure the encapsulated drug's stability, we selected the encapsulated DOX M-EL[…],80 sample as a model system. […] Free DOX and encapsulated DOX were both made to 400 μM and 250 μL was added with a syringe to small volume Slide-a-Lyzer dialysis cassettes with a 3,500 Da molecular weight cutoff. […] At various time points, 3 mL of the filtrate was removed and replaced with fresh PBS. The fluorescence of the starting sample, filtrate, and retentate were measured in duplicate with a Wallac 1420 Victor3 Plate Reader (Perkin Elmer). Relative fluorescing units were converted to DOX concentrations using a standard curve made using serial dilution of free and encapsulated DOX. […] The cumulative DOX released was calculated and plotted as a function of dialysis time. […] At the end of the one week study, the retentate from each sample was removed and measured.

The structures appear in SMILES notation. Some results are limits rather than exact numbers.

`COc1cccc2c1C(=O)c1c(O)c3c(c(O)c1C2=O)C[C@@](O)(C(=O)CO)C[C@@H]3O[C@H]1C[C@H](N)[C@H](O)[C@H](C)O1` [DOXFree, doxorubicin]: the “octanol-water distribution coefficient (log D pH 7.5)” value in series [1] is reported as 2.4. Besides, in series [2] (after a week at 37° C.), the “DOX filtered out of cassette” value is 99%. Further, the “time to reach equilibrium in dialysis” value in series [2] (dialysis against PBS, 37° C.) was at most 24 h.
